Data taken from ChEMBL document CHEMBL6109114, “Design, synthesis, and biological evaluation of 4-(2-fluorophenoxy)pyridine derivatives as novel FLT3-ITD inhibitors” (Eur J Med Chem, 2025).
Calls of active or inactive are those of the source. No cut-off for these calls is given here.

How the values were obtained:
BaF3 [1] = test: Antiproliferative activity against mouse BaF3 cells harbouring FLT3-ITD assessed as inhibition of cell growth measured after 3 days by celltiter-glo luminescent cell viability assay; type: functional, cell-based; details: BaF3, 72 h
MOLM-14 = test: Antiproliferative activity against human MOLM-14 cells harbouring FLT3-ITD assessed as inhibition of cell growth measured after 3 days by celltiter-glo luminescent cell viability assay; type: functional, cell-based; details: MOLM-14, 72 h
MV4-11 = test: Antiproliferative activity against human MV4-11 cells harbouring FLT3-ITD assessed as inhibition of cell growth measured after 3 days by celltiter-glo luminescent cell viability assay; type: functional, cell-based; details: MV4-11, 72 h
HL-60 = test: Antiproliferative activity against human HL-60 cells harbouring wild type FLT3 assessed as inhibition of cell growth measured after 3 days by celltiter-glo luminescent cell viability assay; type: functional, cell-based; details: HL-60, 72 h
[2] = Antiproliferative activity against non-FLT3 expressing human TMD8 cells assessed as inhibition of cell growth measured after 3 days by celltiter-glo luminescent cell viability assay; type: functional, cell-based; details: TMD8, 72 h
[3] = target: Cyclin-dependent kinase 1/cyclin B1 (Homo sapiens) (UniProt P06493+P14635); test: Inhibition of human CDK1/CyclinB1 at 1 uM by Eurofins-DiscoverX assay; type: protein-complex assay
[4] = target: T1, Cyclin-dependent kinase 5/CDK5 activator 1 (Homo sapiens) (UniProt Q00535+Q15078); test: Inhibition of human CDK5/p25 at 1 uM by Eurofins-DiscoverX assay; type: protein-complex assay
[5] = target: CDK6/cyclin D3 (Homo sapiens) (UniProt P30281+Q00534); test: Inhibition of human CDK6/cyclinD3 at 1 uM by Eurofins-DiscoverX assay; type: protein-complex assay
[6] = target: T1, Cyclin-dependent kinase 5/CDK5 activator 1 (Homo sapiens); test: Inhibition of human CDK5/p25 assessed as remaining activity at 1 uM by Eurofins-DiscoverX assay relative to control; type: protein-complex assay
[7] = target: Vascular endothelial growth factor receptor 1 (Homo sapiens, UniProt P17948); test: Inhibition of FLT1 (unknown origin) using Fluorescein-Poly GT as substrate preincubated for 10 mins followed by substrate addition and measured after 30 mins in presence of ATP by mobility shift assay
BaF3 [8] = test: Antiproliferative activity against mouse BaF3 cells harbouring TEL-KIT assessed as inhibition of cell growth measured after 3 days by celltiter-glo luminescent cell viability assay; type: functional, cell-based; details: BaF3, 72 h
MOLM-13 [9] = test: Induction of apoptosis in human MOLM-13 cells assessed as viable cells at 0.1 uM incubated for 48 hrs by Annexin V-FITC/PI staining based flow cytometry analysis (reference value: 91.9%); type: functional; details: read-out: Activity
MOLM-13 [10] = test: Induction of apoptosis in human MOLM-13 cells assessed as viable cells at 0.3 uM incubated for 48 hrs by Annexin V-FITC/PI staining based flow cytometry analysis (reference value: 91.9%); type: functional; details: read-out: Activity
MOLM-13 [11] = test: Induction of apoptosis in human MOLM-13 cells assessed as early apoptotic cells at 0.3 uM incubated for 48 hrs by Annexin V-FITC/PI staining based flow cytometry analysis (reference value: 4.93%); type: functional
MOLM-13 [12] = test: Induction of apoptosis in human MOLM-13 cells assessed as late apoptotic cells at 0.3 uM incubated for 48 hrs by Annexin V-FITC/PI staining based flow cytometry analysis (reference value: 3.10%); type: functional
MOLM-13 [13] = test: Induction of apoptosis in human MOLM-13 cells assessed as late apoptotic cells at 1 uM incubated for 48 hrs by Annexin V-FITC/PI staining based flow cytometry analysis (reference value: 3.10%); type: functional
MOLM-13 [14] = test: Induction of apoptosis in human MOLM-13 cells assessed as necrotic cells at 1 uM incubated for 48 hrs by Annexin V-FITC/PI staining based flow cytometry analysis (reference value: 0.077%); type: functional
MOLM-13 [15] = test: Induction of cell cycle arrest in human MOLM-13 cells assessed as accumulation of cells at G1 phase at 0.1 uM incubated for 48 hrs (reference value: 40.3%); type: functional
MOLM-13 [16] = test: Induction of cell cycle arrest in human MOLM-13 cells assessed as accumulation of cells at G1 phase at 0.3 uM incubated for 48 hrs (reference value: 40.3%); type: functional
MOLM-13 [17] = test: Induction of cell cycle arrest in human MOLM-13 cells assessed as accumulation of cells at S phase at 0.3 uM incubated for 48 hrs (reference value: 41.6%); type: functional
MOLM-13 [18] = test: Induction of cell cycle arrest in human MOLM-13 cells assessed as accumulation of cells at S phase at 1 uM incubated for 48 hrs (reference value: 41.6%); type: functional
MOLM-13 [19] = test: Induction of cell cycle arrest in human MOLM-13 cells assessed as accumulation of cells at G2 phase at 0.1 uM incubated for 48 hrs (reference value: […]); type: functional
MOLM-13 [20] = test: Induction of cell cycle arrest in human MOLM-13 cells assessed as accumulation of cells at G2 phase at 0.3 uM incubated for 48 hrs (reference value: […]); type: functional
MOLM-13 [21] = test: Induction of cell cycle arrest in human MOLM-13 cells assessed as accumulation of cells at G2 phase at 1 uM incubated for 48 hrs (reference value: […]); type: functional
MOLM-13 [22] = test: Induction of cell cycle arrest in human MOLM-13 cells incubated for 48 hrs; type: functional, cell-based; details: dose 0.1-1 µM
[23] = Metabolic stability in Sprague-Dawley rat liver microsomes assessed as half life at 1 uM measured up to 60 mins in presence of NADPH regenerating system by LC-MS/MS analysis; type: ADME, Microsome
[24] = Metabolic stability in human liver microsomes assessed as parent compound remaining at 1 uM measured after 60 mins in presence of NADPH regenerating system by LC-MS/MS analysis; type: ADME, Microsome; details: read-out: Stability
[25] = Metabolic stability in Beagle dog liver microsomes assessed as intrinsic clearance at 1 uM measured up to 60 mins in presence of NADPH regenerating system by LC-MS/MS analysis; type: ADME, Canis lupus familiaris, Microsome; details: read-out: CLH
[26] = Metabolic stability in Beagle dog liver microsomes assessed as parent compound remaining at 1 uM measured after 60 mins in presence of NADPH regenerating system by LC-MS/MS analysis; type: ADME, Canis lupus familiaris, Microsome; details: read-out: Stability
[27] = Metabolic stability in Beagle dog liver microsomes assessed as parent compound remaining at 1 uM measured after 60 mins by LC-MS/MS analysis; type: ADME, Canis lupus familiaris, Microsome; details: read-out: Stability
CYP3A4 = CYP3A4 (Homo sapiens, UniProt P08684); test: Inhibition of CYP3A4 in human liver microsomes using midazolam as substrate at 10 uM incubated for 10 mins in presence of NADPH by LC-MS/MS analysis relative to control; type: ADME, Microsome; details: probe midazolam
CYP2C19 = CYP2C19 (Homo sapiens, UniProt P33261); test: Inhibition of CYP2C19 in human liver microsomes using S-mephenytoin as substrate at 10 uM incubated for 10 mins in presence of NADPH by LC-MS/MS analysis relative to control; type: ADME, Microsome; details: probe S-mephenytoin
[28] = AUC (0 to t) in mouse at 5 mg/kg, iv; type: ADME, organism-based; details: in vivo
[29] = Cmax in mouse at 10 mg/kg, po; type: ADME, organism-based; details: in vivo
[30] = Oral bioavailability in mouse at 10 mg/kg; type: ADME, organism-based; details: in vivo
MOLM-13 [31] = test: Antitumor activity against human MOLM-13 xenografted in male nude mouse assessed as tumor growth inhibition at 30 mg/kg, po administered once daily for 14 days by vernier caliper method relative to control; type: functional; details: MOLM-13, 336 h, time 14 day, read-out: TGI

T1 sequence (Q00535 whole entry): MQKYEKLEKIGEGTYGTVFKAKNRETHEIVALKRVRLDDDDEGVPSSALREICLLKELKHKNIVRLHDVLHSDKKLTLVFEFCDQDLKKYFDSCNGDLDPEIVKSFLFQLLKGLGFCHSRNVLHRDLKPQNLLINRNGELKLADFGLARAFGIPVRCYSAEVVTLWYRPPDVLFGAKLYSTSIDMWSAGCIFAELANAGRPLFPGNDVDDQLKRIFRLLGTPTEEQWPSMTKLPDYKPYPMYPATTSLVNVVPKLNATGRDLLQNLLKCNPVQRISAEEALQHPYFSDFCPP
T1 sequence (Q15078 99-307 partner limits assumed): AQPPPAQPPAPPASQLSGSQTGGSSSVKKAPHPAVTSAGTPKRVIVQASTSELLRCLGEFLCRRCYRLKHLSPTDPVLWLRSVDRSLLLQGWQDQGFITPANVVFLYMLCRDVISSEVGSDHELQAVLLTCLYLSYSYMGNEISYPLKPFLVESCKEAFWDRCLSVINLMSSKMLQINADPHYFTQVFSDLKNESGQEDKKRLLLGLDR
Chain of Cyclin-dependent kinase 1/cyclin B1 (Homo sapiens) (P06493 whole entry, looked up): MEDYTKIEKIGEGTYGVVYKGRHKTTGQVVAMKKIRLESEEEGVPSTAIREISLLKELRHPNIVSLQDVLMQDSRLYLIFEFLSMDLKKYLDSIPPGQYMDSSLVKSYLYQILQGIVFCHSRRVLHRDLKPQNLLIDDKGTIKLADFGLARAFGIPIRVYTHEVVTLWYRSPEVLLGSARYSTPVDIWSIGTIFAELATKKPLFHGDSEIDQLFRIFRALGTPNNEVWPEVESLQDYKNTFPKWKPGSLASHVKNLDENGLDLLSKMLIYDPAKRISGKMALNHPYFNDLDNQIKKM
Chain of Cyclin-dependent kinase 1/cyclin B1 (Homo sapiens) (P14635 whole entry, looked up): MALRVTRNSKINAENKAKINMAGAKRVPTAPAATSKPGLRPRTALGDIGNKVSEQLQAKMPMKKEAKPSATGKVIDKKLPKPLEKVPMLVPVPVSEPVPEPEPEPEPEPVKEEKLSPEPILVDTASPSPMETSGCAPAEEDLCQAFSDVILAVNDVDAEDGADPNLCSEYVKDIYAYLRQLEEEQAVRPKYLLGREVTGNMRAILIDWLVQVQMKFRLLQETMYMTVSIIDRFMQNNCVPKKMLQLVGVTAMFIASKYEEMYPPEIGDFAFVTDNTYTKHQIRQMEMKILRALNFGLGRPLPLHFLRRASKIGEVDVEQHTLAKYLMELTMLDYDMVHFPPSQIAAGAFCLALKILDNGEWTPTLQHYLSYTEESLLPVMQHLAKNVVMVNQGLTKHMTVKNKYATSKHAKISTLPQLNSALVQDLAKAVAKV
Chain of CYP3A4 (P08684 whole entry): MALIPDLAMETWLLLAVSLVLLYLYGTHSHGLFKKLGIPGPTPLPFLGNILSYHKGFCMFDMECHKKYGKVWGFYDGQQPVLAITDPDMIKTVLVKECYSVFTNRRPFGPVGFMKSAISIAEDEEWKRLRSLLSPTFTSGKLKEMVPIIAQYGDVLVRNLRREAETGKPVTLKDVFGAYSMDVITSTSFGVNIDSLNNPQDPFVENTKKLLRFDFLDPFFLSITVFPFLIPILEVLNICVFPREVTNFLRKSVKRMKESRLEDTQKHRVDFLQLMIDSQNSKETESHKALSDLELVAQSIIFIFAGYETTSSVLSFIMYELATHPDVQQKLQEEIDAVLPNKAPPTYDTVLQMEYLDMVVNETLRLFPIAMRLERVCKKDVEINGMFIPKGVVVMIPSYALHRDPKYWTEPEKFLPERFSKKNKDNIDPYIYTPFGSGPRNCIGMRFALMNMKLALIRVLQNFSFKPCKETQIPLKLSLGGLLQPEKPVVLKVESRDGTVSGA
Chain of CYP2C19 (P33261 whole entry): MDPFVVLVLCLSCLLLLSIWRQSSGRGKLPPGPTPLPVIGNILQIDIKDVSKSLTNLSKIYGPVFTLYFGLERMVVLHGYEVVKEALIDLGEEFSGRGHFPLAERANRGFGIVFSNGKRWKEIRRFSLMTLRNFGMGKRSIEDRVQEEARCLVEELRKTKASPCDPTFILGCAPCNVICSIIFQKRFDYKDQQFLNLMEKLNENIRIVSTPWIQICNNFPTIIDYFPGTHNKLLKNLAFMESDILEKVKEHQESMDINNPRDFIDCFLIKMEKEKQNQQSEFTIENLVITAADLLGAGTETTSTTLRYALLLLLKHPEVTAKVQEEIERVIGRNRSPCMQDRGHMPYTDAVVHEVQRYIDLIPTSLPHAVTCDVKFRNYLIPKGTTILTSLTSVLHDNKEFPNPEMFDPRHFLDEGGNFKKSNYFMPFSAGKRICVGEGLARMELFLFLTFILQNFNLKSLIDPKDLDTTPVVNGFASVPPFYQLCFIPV
Chain of Vascular endothelial growth factor receptor 1 (P17948 whole entry): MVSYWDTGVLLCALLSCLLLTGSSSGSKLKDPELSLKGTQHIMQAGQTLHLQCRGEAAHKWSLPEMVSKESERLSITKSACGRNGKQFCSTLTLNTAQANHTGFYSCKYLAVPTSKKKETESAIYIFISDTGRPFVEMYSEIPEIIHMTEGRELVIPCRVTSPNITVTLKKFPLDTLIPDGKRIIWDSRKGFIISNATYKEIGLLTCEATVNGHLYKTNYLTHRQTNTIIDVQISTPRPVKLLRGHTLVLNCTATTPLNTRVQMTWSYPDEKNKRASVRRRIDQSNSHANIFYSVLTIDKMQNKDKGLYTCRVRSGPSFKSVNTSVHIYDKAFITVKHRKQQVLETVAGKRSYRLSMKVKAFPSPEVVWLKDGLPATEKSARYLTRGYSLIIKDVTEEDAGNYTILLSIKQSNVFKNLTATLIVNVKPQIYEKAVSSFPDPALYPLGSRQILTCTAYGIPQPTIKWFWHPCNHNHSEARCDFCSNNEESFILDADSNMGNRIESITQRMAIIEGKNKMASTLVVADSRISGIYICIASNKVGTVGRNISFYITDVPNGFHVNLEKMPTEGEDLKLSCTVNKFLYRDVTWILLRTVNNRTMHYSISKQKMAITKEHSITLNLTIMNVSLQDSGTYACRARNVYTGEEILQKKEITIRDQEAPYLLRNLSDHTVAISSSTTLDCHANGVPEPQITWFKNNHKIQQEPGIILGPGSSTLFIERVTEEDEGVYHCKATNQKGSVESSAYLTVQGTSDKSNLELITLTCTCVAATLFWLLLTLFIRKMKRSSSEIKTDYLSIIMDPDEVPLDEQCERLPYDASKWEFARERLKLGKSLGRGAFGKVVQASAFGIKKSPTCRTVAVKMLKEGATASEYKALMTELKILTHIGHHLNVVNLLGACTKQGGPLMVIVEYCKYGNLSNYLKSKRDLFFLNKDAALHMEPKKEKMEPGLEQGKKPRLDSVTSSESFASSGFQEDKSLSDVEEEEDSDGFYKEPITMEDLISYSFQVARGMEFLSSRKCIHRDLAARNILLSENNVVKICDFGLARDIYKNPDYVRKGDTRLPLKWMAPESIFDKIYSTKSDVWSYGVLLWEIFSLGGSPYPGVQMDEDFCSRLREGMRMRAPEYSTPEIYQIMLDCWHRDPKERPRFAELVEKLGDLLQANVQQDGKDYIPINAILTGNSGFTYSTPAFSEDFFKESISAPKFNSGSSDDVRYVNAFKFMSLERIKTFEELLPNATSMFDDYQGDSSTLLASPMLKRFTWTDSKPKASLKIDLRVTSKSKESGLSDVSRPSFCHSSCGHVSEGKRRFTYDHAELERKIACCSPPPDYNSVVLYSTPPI

## Cc1cc(=O)n(-c2cc(Cl)ccc2F)nc1C(=O)Nc1ccc(Oc2ccnc(NC(=O)N3CC(O)C3)c2)c(F)c1
BaF3 [1]
  IC50: 190 nM
MOLM-14
  IC50: 510 nM
MV4-11
  IC50: 390 nM
HL-60
  IC50: 18900 nM
[2]
  IC50: 22300 nM
[3]
  inhibition: inactive
[4]
  inhibition: inactive
[5]
  inhibition: inactive
[6]
  Activity: 88%
[7]
  IC50: 348 nM
BaF3 [8]
  IC50: > 10000 nM
MOLM-13 [9]
  viability at 0.1 µM: 90.6%
MOLM-13 [10]
  viability at 0.3 µM: 74.2%
MOLM-13 [11]
  Activity: 13.4%
MOLM-13 [12]
  Activity: 12.3%
MOLM-13 [13]
  Activity: 36.2%
MOLM-13 [14]
  Activity: 0.74%
MOLM-13 [15]
  Activity: 50.1%
MOLM-13 [16]
  Activity: 75.8%
MOLM-13 [17]
  Activity: 17.1%
MOLM-13 [18]
  Activity: 21.2%
MOLM-13 [19]
  Activity: 9.39%
MOLM-13 [20]
  Activity: 8.51%
MOLM-13 [21]
  Activity: 0%
MOLM-13 [22]
  Activity: Dose-dependent-effect
[23]
  half-life at 1 µM: 1.95 h
[24]
  remaining at 1 h, 1 µM: 66.3%
[25]
  microsomal CLint at 1 µM: 11.1 µL/min/mg
[26]
  remaining at 1 h, 1 µM: 72.7%
[27]
  remaining at 1 h, 1 µM: 103%
CYP3A4
  inhibition at 10 min, 10 µM: 34.2%
CYP2C19
  inhibition at 10 min, 10 µM: 36.9%
[28]
  AUC(0-t): 2030 ng·h/mL
[29]
  Cmax: 306 ng/mL
[30]
  bioavailability: 32.4%
MOLM-13 [31]
  inhibition in vivo at 30 mg/kg: 77.1%
